Measured values as given in patent US11767286B2, “Phenylpropionate compound, preparation method for same, and applications thereof” (SUZHOU PHARMAVAN CO., LTD, priority 2017, dated 2023).

Test system: SD rat model of focal ischemia-reperfusion
Assay: Pharmacodynamic (administration) time window in SD rat model of focal ischemia-reperfusion (MCAO)
Assay type: in vivo, SD rats
Conditions: for Score of Symptoms of Neurological Deficits: 48 h, modified Bederson 5-point scale; for Infarction area: evaluated after 48 h, mean ± standard error
Description: In this example, Compound A was measured for a pharmacodynamic time window by a method described below.
Trial method: A cerebral ischemia reperfusion model of middle cerebral artery occlusion (MCAO) was prepared by an internal carotid artery suture method. An animal was anesthetized with 10% chloral hydrate (3.6 mL/kg) and then fixed on an operating table in a supine position. Its skin was disinfected, and a midline incision was made on the neck. The right common carotid artery, external carotid artery, and internal carotid artery were separated, the vagus nerve was gently striped off, and the external carotid artery was ligated and cut. The common carotid artery was clamped at the proximal end. […] The nylon thread was advanced through the bifurcation of the common carotid artery into the internal carotid artery, and then was slowly inserted until there was slight resistance (about 20 mm from the bifurcation) to block all the blood supply to the middle cerebral artery. 2 h after cerebral ischemia, the nylon thread was gently pulled out to restore blood supply for reperfusion, and the neck skin was sutured and disinfected. The animal was put back in a cage and raised. During the modeling operation, animals with abnormal conditions due to anesthesia, surgery, etc. were excluded, and successfully modeled animals were randomly grouped. Schemes were set according to trial doses, and drug treatment was given 3 h, 4 h, and 5 h after cerebral ischemia-reperfusion. Death conditions were recorded every day after the surgery, and indicators were evaluated after 48 h. In the whole trial process, general conditions were observed, mainly including: death, coma, breathing, urine and feces traits, hair colors, mental status, vomiting and vomitus, bleeding, convulsion, spasm, etc. Abnormal animals due to unexpected factors were excluded. Finally, unblinding was conducted by a person who made blind trials.
Evaluated indicator: (1) Evaluation of symptoms of neurological deficits: The symptoms of neurological deficits were evaluated by using a modified Bederson 5-point scale. A single-blind method was used for evaluating the symptoms of neurological deficits in rats with brain trauma. That is, a trial designer marked animals in accordance with groups, and an experimenter who scored the symptoms of neurological deficits had no knowledge of how the animals were grouped. After scoring was completed, the scorer submitted scoring results for various marks to the designer, and the designer performed unblinding to obtain scores of animals in each trial group. (2) Measurement of cerebral infarction area: A method reported in the literature was used. An animal was anesthetized with 10% chloral hydrate and decapitated to collect brain. The olfactory bulb, cerebellum and lower brain stem were removed. Blood stains on the surface of the brain were rinsed with normal saline, the residual water stains on the surface were absorbed, and the brain was placed at −80° C. for 7 min. After the brain was taken out, a coronal section was immediately made at downwards and vertical to the sight intersection plane, and brain slices were made every 2 mm backwards. Brain slices were placed in a TTC (20 g/L) dye solution prepared with 0.9% normal saline, and incubated at 37° C. for 90 min. Normal brain tissues were stained deep red, and ischemic brain tissues were pale-white. After rinsed with normal saline, the brain sections were quickly arranged in order from front to back, the residual water stains on the surface were absorbed to dryness, and pictures were taken. Image analysis software was used for statistics on the pictures. Ischemic area (white region) on the right side and total area on the right side were delineated, and a percentage of the cerebral infarction area was calculated by the following formula: […]
Statistical analysis: Quantitative data is expressed as mean value±standard error. […]

[1] = drug given 3 h after reperfusion
[2] = drug given 4 h after reperfusion
[3] = drug given 5 h after reperfusion

COc1cc(CCC(=O)O[C@H]2C[C@H]3CC[C@]2(C)C3(C)C)cc(F)c1O [Compound A]
treatment time window (after ischemia (2 h ischemia then reperfusion)): not less than 6 h
Score of Symptoms of Neurological Deficits [1]: 2.04 ± 0.12
Infarction area [1]: 23.56 ± 2.86 %
Score of Symptoms of Neurological Deficits [2]: 2.13 ± 0.14
Infarction area [2]: 24.54 ± 2.53 %
Score of Symptoms of Neurological Deficits [3]: 2.42 ± 0.17
Infarction area [3]: 32.43 ± 2.13%
